Data published in patent US8415379B2, “Pyridines” (Hoffmann-La Roche Inc., priority 2009, dated 2013).

What follows are molecules tested against T1, GABA A α5 (human receptors of composition α5β3γ2) (Homo sapiens, UniProt P18507+P31644) (assay: [3H]flumazenil competition binding assay, human GABA A α5β3γ2 receptors in HEK293 cells). Settings: displacement of 0.5 nM [3H]flumazenil, HEK293 membranes, 1 hour at 4° C., means of two determinations, read-out: hKi GABA A α5.
T1 construct: expressed in transfected cells; host or cells: HEK293 cells, transiently transfected; membrane homogenates used
Experimental: The affinity of compounds at GABA A receptor subtypes was measured by competition for [^3H]flumazenil (85 Ci/mmol; Roche) binding to HEK293 cells expressing rat (stably transfected) or human (transiently transfected) receptors of composition α1β3γ2, α2β3γ2, α3β3γ2 and α5β3γ2.
Cell pellets were suspended in Krebs-tris buffer (4.8 mM KCl, 1.2 mM CaCl2, 1.2 mM MgCl2, 120 mM NaCl, 15 mM Tris; pH 7.5; binding assay buffer), homogenized by polytron for ca. 20 sec on ice and centrifuged for 60 min at 4° C. (50000 g; Sorvall, rotor: SM24=20000 rpm). The cell pellets were re-suspended in Krebs-tris buffer and homogenized by polytron for ca. 15 sec on ice. Protein was measured (Bradford method, Bio-Rad) and aliquots of 1 mL were prepared and stored at −80° C.
Radioligand binding assays were carried out in a volume of […] (96-well plates) which contained […] of cell membranes, [^3H]flumazenil at a concentration of 1 nM for α1, α2 and α3 subunits and 0.5 nM for α5 subunits and the test compound in the range of […]. Nonspecific binding was defined by 10^−5 M diazepam and typically represented less than 5% of the total binding. Assays were incubated to equilibrium for 1 hour at 4° C. and harvested onto GF/C uni-filters (Packard) by filtration using a Packard harvester and washing with ice-cold wash buffer (50 mM Tris; pH 7.5). After drying, filter-retained radioactivity was detected by liquid scintillation counting. Ki values were calculated using Excel-Fit (Microsoft) and are the means of two determinations.

SMILES	Ki [nM]
O=C(NCC(F)(F)F)c1ccc(OCc2c(-c3ccc(F)cc3)noc2CO)cn1 [Example 33, 5-[3-(4-Fluoro-phenyl)-5-hydroxymethyl-isoxazol-4-ylmethoxy]-pyridine-2-carboxylic acid (2,2,2-trifluoro-ethyl)-amide]	10.2
CCNC(=O)c1ccc(OCc2c(-c3ccccn3)noc2C)cn1 [Example 15, 5-(5-Methyl-3-pyridin-2-yl-isoxazol-4-ylmethoxy)-pyridine-2-carboxylic acid ethylamide]	5.8
Cc1onc(-c2ccccc2)c1COc1ccc(C(=O)NCCO)nc1 [Example 1, 5-(5-Methyl-3-phenyl-isoxazol-4-ylmethoxy)-pyridine-2-carboxylic acid (2-hydroxy-ethyl)-amide]	15.4
Cc1onc(-c2ccc(F)cn2)c1COc1ccc(C(=O)NC2CC2)nc1 [Example 27, 5-[3-(5-Fluoro-pyridin-2-yl)-5-methyl-isoxazol-4-ylmethoxy]-pyridine-2-carboxylic acid cyclopropylamide]	2.6
Cc1onc(-c2ccccn2)c1COc1ccc(C(=O)N[C@@H](C)C(F)(F)F)nc1 [Example 22, 5-(5-Methyl-3-pyridin-2-yl-isoxazol-4-ylmethoxy)-pyridine-2-carboxylic acid ((S)-2,2,2-trifluoro-1-methyl-ethyl)-amide]	5.6
Cc1onc(-c2ccccn2)c1COc1ccc(C(=O)N2CCS(=O)(=O)CC2)nc1 [Example 10, (1,1-Dioxo-1,6-thiomorpholin-4-yl)-[5-(5-methyl-3-pyridin-2-yl-isoxazol-4-ylmethoxy)-pyridin-2-yl]-methanone]	34.2
Cc1onc(-c2ccccn2)c1COc1ccc(C(=O)NCC2CC2)nc1 [Example 12, 5-(5-Methyl-3-pyridin-2-yl-isoxazol-4-ylmethoxy)-pyridine-2-carboxylic acid cyclopropyl-methyl-amide]	7.1
